Experimental data taken from patent US6127382A, “Amines substituted with a tetrahydroquinolinyl group an aryl or heteroaryl group and an alkyl group, having retinoid-like biological activity” (Allergan Sales, Inc., priority 1999, dated 2000).
Numbering of substitutions follows the chain as printed.

Experiments:
RXRβ = target: T1, RXRβ (Homo sapiens, UniProt P28702); assay: ligand binding assay, RXRβ; conditions: read-out: RXR Bind Ki β
T1 sequence (P28702 1-533): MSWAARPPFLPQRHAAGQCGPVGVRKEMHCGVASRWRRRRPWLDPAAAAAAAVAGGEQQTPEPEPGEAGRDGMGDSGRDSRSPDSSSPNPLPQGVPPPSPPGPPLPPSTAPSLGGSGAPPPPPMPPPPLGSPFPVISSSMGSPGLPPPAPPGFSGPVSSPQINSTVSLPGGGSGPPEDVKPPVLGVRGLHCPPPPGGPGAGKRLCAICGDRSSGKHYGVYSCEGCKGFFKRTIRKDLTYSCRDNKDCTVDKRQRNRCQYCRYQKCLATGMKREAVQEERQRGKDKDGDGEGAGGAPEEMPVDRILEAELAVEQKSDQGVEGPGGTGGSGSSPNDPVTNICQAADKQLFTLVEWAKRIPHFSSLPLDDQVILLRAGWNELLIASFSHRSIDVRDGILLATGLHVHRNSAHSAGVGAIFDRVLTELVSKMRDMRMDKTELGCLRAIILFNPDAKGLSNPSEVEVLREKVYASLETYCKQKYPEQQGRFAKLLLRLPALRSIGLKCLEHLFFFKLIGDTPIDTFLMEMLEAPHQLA
Excerpt: (§1) Other assays described below, measure the ability of the compounds of the present invention to bind to, and/or activate various retinoid receptor subtypes. When in these assays a compound binds to a given receptor subtype and activates the transcription of a reporter gene through that subtype, then the compound is considered an agonist of that receptor subtype. […] In the below described assays the ability of the compounds to bind to RARα, RARβ, RARγ, RXRα, RXRβ and RXRγ receptors, and the ability or inability of the compounds to activate transcription of a reporter gene through these receptor subtypes can be tested. […] However, some of the compounds of the invention may behave as retinoid antagonists or partial antagonists and/or as inverse agonists. Because of the complex distribution of the different retinoid receptors in various organs of the mammalian body partial agonists and partial antagonists and compounds which have the characteristics of both may lend themselves to particularly useful therapeutic applications and may avoid serious side effects of conventional retinoid drugs.
(§2) A holoreceptor transactivation assay and a ligand binding assay which measure the antagonist/agonist like activity of the compounds of the invention, or their ability to bind to the several retinoid receptor subtypes, respectively, are described in published PCT Application No. WO WO93/11755 (particularly on pages 30-33 and 37-41) published on Jun. 24, 1993, the specification of which is also incorporated herein by reference. A detailed experimental procedure for holoreceptor transactivations has been described by Heyman et al. Cell 68, 397-406, (1992); Allegretto et al. J. Biol. Chem. 268, 26625-26633, and Mangelsdorf et al. The Retinoids: Biology, Chemistry and Medicine, pp 319-349, Raven Press Ltd., New York, which are expressly incorporated herein by reference. The results obtained in this assay are expressed in EC50 numbers, as they are also in the chimeric receptor transactivation assay. The results of ligand binding assay are expressed in Kd numbers. (See Cheng et al. Biochemical Pharmacology Vol. 22 pp 3099-3108, expressly incorporated herein by reference.)
(§3) Table 1 discloses the activity of certain exemplary compounds of the invention in the above-described chimeric receptor transactivation assay, holoreceptor transactivation assay and a ligand binding assays. Particularly, the transactivation data pertaining to RAR receptors were obtained in the chimeric assay, and the data pertaining to transactivation of RXR receptors were obtained in the holoreceptor transactivation assay.

RXRγ [1] = target: T2, RXRγ (Mus musculus, UniProt P28705); assay: holoreceptor transactivation assay, RXRγ; format: cell-based; conditions: for EC50: holoreceptor assay, read-out: RXR Trans EC50 γ; for Emax: relative to 10^-6 M cyclopropyl penta-2,4-dienoic acid reference, read-out: % efficacy, RXRγ transactivation
T2 construct: expressed in transfected cells
T2 sequence (P28705 1-463): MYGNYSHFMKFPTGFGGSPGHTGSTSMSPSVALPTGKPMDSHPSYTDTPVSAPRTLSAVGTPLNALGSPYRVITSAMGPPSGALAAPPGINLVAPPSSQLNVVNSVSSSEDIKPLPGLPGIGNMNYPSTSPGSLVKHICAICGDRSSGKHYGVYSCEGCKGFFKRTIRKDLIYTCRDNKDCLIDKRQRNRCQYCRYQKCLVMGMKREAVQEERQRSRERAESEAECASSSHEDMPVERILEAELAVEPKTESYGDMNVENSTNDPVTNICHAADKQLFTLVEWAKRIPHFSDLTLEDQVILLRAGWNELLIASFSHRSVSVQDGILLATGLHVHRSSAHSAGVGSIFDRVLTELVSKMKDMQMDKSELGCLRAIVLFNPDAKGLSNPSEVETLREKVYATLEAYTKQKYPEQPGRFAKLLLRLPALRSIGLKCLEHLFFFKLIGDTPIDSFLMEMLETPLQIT
Excerpt: as §1, §2, §3

RXRγ [2] = target: T3, RXRγ (Homo sapiens, UniProt P48443); assay: ligand binding assay, RXRγ; conditions: read-out: RXR Bind Ki γ
T3 sequence (P48443 1-463): T2 sequence (P28705 1-463) with T13A, F15Y, V31A, P34S, S228T, S230G, V258M, S450T
Excerpt: as §1, §2, §3

RARγ = target: T4, RARγ (Homo sapiens, UniProt P13631); assay: ligand binding assay, RARγ; conditions: read-out: RAR Bind Ki γ
T4 sequence (P13631 1-454): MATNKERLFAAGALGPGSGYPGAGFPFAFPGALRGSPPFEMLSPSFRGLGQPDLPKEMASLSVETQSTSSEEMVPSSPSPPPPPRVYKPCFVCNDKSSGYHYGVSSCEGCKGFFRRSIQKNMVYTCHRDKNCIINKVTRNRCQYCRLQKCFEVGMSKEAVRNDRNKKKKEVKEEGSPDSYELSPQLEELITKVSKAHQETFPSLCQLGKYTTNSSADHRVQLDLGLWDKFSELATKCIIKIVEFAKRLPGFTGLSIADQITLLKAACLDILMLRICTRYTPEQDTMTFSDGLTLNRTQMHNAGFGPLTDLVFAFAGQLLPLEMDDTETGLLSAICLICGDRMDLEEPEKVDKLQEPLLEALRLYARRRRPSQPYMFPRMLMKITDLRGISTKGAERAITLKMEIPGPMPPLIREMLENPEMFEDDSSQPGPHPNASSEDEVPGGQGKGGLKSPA
Excerpt: as §1, §2, §3

| SMILES | Ki (RXRβ) [nM] | EC50 (RXRγ [1]) [nM] | Emax (RXRγ [1]) [%] | Ki (RXRγ [2]) [nM] | Ki (RARγ) [nM] |
| --- | --- | --- | --- | --- | --- |
| CCN(c1ccc(C(=O)O)cc1)c1ccc2c(c1)N(C(C)C)CCC2(C)C [Compound 38, 4-[(1-Isopropyl-4,4-dimethyl-1,2,3,4-tetrahydroquinolin-7-yl)ethylamino]benzoic acid] | 57 | 1 | 109 | 27 | 6300 |
| CC(C)CN(c1ccc(C(=O)O)cc1)c1ccc2c(c1)N(C(C)C)CCC2(C)C [Compound 39, 4-[(1-Isopropyl-4,4-dimethyl-1 2,3,4-tetrahydroquinolin-7-yl)isobutylamino]benzoic acid] | 133 | 2 | 112 | 60 | 2800 |
| CC(C)CCN(c1ccc(C(=O)O)cc1)c1ccc2c(c1)C(C)(C)CCN2C(C)C [Compound 14, 4-[(1-Isopropyl-4,4-dimethyl-1,2,3,4-tetrahydroquinolin-6-yl)(3-methylbutyl)amino]-benzoic Acid] | 778 | – | – | > 1000 | 1500 |
| Cc1cc2c(cc1Nc1ccc(C(=O)O)cc1)N(C(C)C)CCC2(C)C [Compound 50, 4-(1-Isopropyl-4,4,6-trimethyl-1,2,3,4-tetrahydro-quinolin-7-ylamino)-benzoic acid] | 262 | 4 | 102 | > 1000 | > 10000 |
| CCN(c1ccc(C(=O)O)cc1)c1ccc2c(c1)C(C)(C)CC(=O)N2C(C)C [Compound 6, 4-[(1-Isopropyl-4,4-dimethyl-2-oxo-1,2,3,4-tetrahydroquinolin-6-yl)ethylamino]benzoic Acid] | – | – | – | > 10000 | > 30000 |
| CC(C)N1CCC(C)(C)c2cc(N(C)c3ccc(C(=O)O)cc3)ccc21 [Compound 10, 4-[(1-Isopropyl-4,4-dimethyl-1,2,3,4-tetrahydroquinolin-6-yl)methylamino]benzoic Acid] | > 1000 | 1000 | 50 | > 10000 | > 10000 |

Next, values leading:

| Ki (RXRβ) [nM] | EC50 (RXRγ [1]) [nM] | Emax (RXRγ [1]) [%] | Ki (RXRγ [2]) [nM] | Ki (RARγ) [nM] | SMILES |
| --- | --- | --- | --- | --- | --- |
| 1100 | 1000 | 100 | > 1000 | 1700 | Cc1cc2c(cc1N(C)c1ccc(C(=O)O)cc1)C(C)(C)CCN2C(C)C [Compound 22, 4-[(1-Isopropyl-4,4,7-trimethyl-1,2,3,4-tetrahydroquinolin-6-yl)methylamino]benzoic acid] |
| 142 | 47 | 104 | 317 | > 10000 | Cc1cc2c(cc1N(C)c1ccc(C(=O)O)cc1)N(C(C)C)CCC2(C)C [Compound 51, 4-[(1-Isopropyl-4,4,6-trimethyl-1,2,3,4-tetrahydro-quinolin-7-yl)-methyl-amino]-benzoic acid] |
| 43 | 0.3 | 96 | 95 | 17000 | CCCN(c1ccc(C(=O)O)cc1)c1cc2c(cc1C)C(C)(C)CCN2C(C)C [Compound 53, 4-[(1-Isopropyl-4,4,6-trimethyl-1,2,3,4-tetrahydro-quinolin-7-yl)-propyl-amino]-benzoic acid] |
| 1100 | 69 | 117 | > 1000 | 9200 | CCN(c1ccc(C(=O)O)cc1)c1cc2c(cc1C)N(C(C)C)CCC2(C)C [Compound 24, 4-[(1-Isopropyl-4,4,7-trimethyl-1,2,3,4-tetrahydroquinolin-6-yl)ethylamino]benzoic acid] |
| 386 | 1000 | 75 | 1300 | 4700 | Cc1cc2c(cc1N(CC1CC1)c1ccc(C(=O)O)cc1)C(C)(C)CCN2C(C)C [Compound 26, 4-[(1-Isopropyl-4,4,7-trimethyl-1,2,3,4-tetrahydro-quinolin-6-yl)(cyclopropylmethyl)amino]benzoic acid] |
| 99 | 0.5 | 96 | 38 | 10000 | CCN(c1ccc(C(=O)O)cc1)c1cc2c(cc1C)C(C)(C)CCN2C(C)C [Compound 52, 4-[-(1-Isopropyl-4,4,6-trimethyl-1,2,3,4-tetrahydro-quinolin-7-yl)ethylamino]-benzoic acid] |
| 42 | 0.2 | 105 | 34 | 3500 | CC(C)N1CCC(C)(C)c2ccc(N(CC3CC3)c3ccc(C(=O)O)cc3)cc21 [Compound 40, 4-[(1-Isolpropyl-4,4-dimethyl-1,2,3,4-tetrahydroquinolin-7-yl)(cylopropylmethyl)amino]benzoic acid] |
| 273 | 148 | 150 | 1300 | 1000 | CCN(c1ccc(C(=O)O)cc1)c1ccc2c(c1)C(C)(C)CCN2C(C)C [Compound 12, 4-[(1-Isopropyl-4,4-dimethyl-1,2,3,4-tetrahydroquinolin-6-yl)ethylamino]benzoic acid] |
